The test system of the test is Huh7 miR-21 level, qRT-PCR, 48 h. Briefly: effect on endogenous miR-21 levels, dose response, selectivity assay for miR-122 activator project, cell-based, Huh7, qRT-PCR, dry powder (AID 720727).

Molecules are shown by their SMILES. Active and inactive are the calls of the source.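 How the source made its calls: active means compound whose rising-signal curve crosses activity 40 at or below its top valid dose; inconclusive means flat curve holding activity 30 to 70, or poor fit; inactive means the rest.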

`COCC(=O)N(C)C[C@H]1Oc2cc(-c3ccccc3F)ccc2S(=O)(=O)N([C@H](C)CO)C[C@H]1C`: the AC40 is 18.8 µM. The same measure for `COc1ccc(S(=O)(=O)N(C)C[C@@H]2Oc3ncc(/C=C/c4ccccc4)cc3C(=O)N([C@@H](C)CO)C[C@@H]2C)cc1`: 14.9 µM; for `CNC[C@@H]1Oc2cc(C#CC3CCCCC3)ccc2S(=O)(=O)N([C@@H](C)CO)C[C@@H]1C`: 29.2 µM.

As for `COCC(=O)N(C)C[C@H]1Oc2cc(C#Cc3cccnc3)ccc2S(=O)(=O)N([C@H](C)CO)C[C@H]1C`, the AC40 is 4.22 µM.

Consider `C[C@H]1CN([C@@H](C)CO)C(=O)c2cc(-c3ccc(C#N)cc3)cnc2O[C@H]1CN(C)C(=O)c1ccccc1`, for which the AC40 is 30.6 µM. `CN(C)CCCOc1nn(Cc2ccccc2)c2ccccc12`: the AC40 is 11.4 µM.

As for `CN(CC(=O)Nc1cccc(Cl)c1)S(=O)(=O)c1ccc2c(c1)n(C)c(=O)c(=O)n2C`, the AC40 is 29.8 µM. The result for `CCn1cc(C(=O)O)c(=O)c2cc(F)c(N3CCNCC3)nc21` reads > 35 µM (inactive). The result for `COCC(=O)N(C)C[C@@H]1Oc2ncc(-c3ccc(C#N)cc3)cc2C(=O)N([C@@H](C)CO)C[C@@H]1C` reads 18.4 µM; that for `CN1C(=O)c2cc(NC(=O)c3cccc(F)c3)ccc2OC[C@H]2O[C@@H](CC(=O)O)CC[C@H]21`, 11.7 µM; that for `Cc1cccc(NC(=O)Nc2ccc3c(c2)C(=O)N(C)[C@@H]2CC[C@H](CC(=O)NCc4ccccc4Cl)O[C@H]2CO3)c1`, 17.9 µM.

Take `Cc1cc(C(C)(C)C)cc(S(=O)(=O)NCCc2ccncc2)c1C`: the AC40 was 33.5 µM. As for `O=C(CN=C1NS(=O)(=O)c2ccccc21)Nc1ccccc1N1CCCCCC1`, the AC40 is 28.4 µM. Take `CCOC(=O)N1CCC(NC(=O)c2ccc3c(c2)sc2nc(-c4ccccc4)cn23)CC1`: the AC40 was 17.5 µM. The result for `CN1C(=O)c2cc(NC(=O)c3cccc(F)c3)ccc2OC[C@H]2O[C@@H](CC(=O)O)CC[C@@H]21` reads 32.5 µM.

For the origin of these results see PubChem BioAssay AID720727 (Broad Institute, 2013).
